Experimental data taken from ChEMBL document CHEMBL4130388, “Recent advances of pyrazole-containing derivatives as anti-tubercular agents” (Eur J Med Chem, 2017).

Target: T1, Enoyl-[acyl-carrier-protein] reductase [NADH] (Mycobacterium tuberculosis, UniProt P9WGR1)
T1 sequence (P9WGR1 whole entry): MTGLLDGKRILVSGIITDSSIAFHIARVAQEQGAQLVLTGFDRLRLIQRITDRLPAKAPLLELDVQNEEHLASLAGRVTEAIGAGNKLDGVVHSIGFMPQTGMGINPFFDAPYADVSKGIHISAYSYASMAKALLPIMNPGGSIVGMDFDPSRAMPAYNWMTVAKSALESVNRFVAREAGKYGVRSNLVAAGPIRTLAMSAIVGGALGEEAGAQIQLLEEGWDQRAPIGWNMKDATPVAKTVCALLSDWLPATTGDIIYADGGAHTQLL
Test: Inhibition of Mycobacterium tuberculosis InhA using DDCoA as substrate in presence of NADH by fluorimetric method

## Cc1cc(C)n(Cc2ccc(C(=O)NCc3ccc(F)cc3Cl)cc2)n1
  IC50: 40 nM
